Results published in patent US6306392A, “Composition comprising a carnitine and glutathione, useful to increase the absorption of glutathione and synergize its effects” (Sigma-Tau Healthscience S.p.A., priority 1999, dated 2001).

Experiments:
[1] = system: increase in liver triglycerides induced by CCl4; test: Carbon tetrachloride-induced liver intoxication tests (liver triglycerides); assay type: in vivo; conditions: rats, CCl4 1 ml.kg^-1 i.p. (20% in olive oil), treated three consecutive days before
Method: Another indicator of CCl4 toxicity in the liver is provided by the increased hepatic concentration of triglycerides.
The CCl4 intoxication was induced by giving fasting rats an intraperitoneal injection of 1 ml.kg^-1 of a suspension of 20% CCl4 in olive oil. Prior to CCl4 intoxication the rats were treated for three consecutive days with glutathione (G=50 mg/kg), or with propionyl L-carnitine (PC=100 mg/kg), or with yeast containing 10% glutathione (YG=500 mg/kg), or with a combination of amino acids (AA=glutamic acid 50 mg, cysteine 25 mg, glycine 50 mg, magnesium 5 mg). or with the complete combination CC (CC=PC+G+AA), or with the complete yeast combination CYC (CYC=PC+YG+AA). After administration of CCl4, the livers were excised from the decapitated animals and were used to measure the triglyceride concentration according to the method described by Donabedian (Donabedian R. K., Clin. Chem., 20:632, 1974).

[2] = system: acetaminophen-induced mortality; test: Acetaminophen (paracetamol) induced toxicity tests; assay type: in vivo; conditions: mice; for Protection against the mortality induced by acetaminophen (in words): acetaminophen 600 mg/kg
Method: Various groups of male mice received oral administrations of 600 mg/kg acetaminophen, which is a dose sufficient to cause death within 24 hours in 50% of the animals thus treated.
At the same time as the acetaminophen administration, one group of animals (group G) were administered glutathione (G) and a second (group YG) were administered yeast containing 10% glutathione (YG); a third group (group PC) were administered propionyl L-carnitine (PC); a fourth group (group AA) were administered a combination of glutamic acid, cysteine, glycine and magnesium (AA); a fifth group (group CC) were administered a first combination according to the invention, called the "complete combination" (CC), consisting of PC+G+AA, while a sixth group (group CYC) were administered a second combination according to the invention, called the "complete yeast combination" (CYC), consisting of PC+YG+AA.
These synergistic effects appear even more marked when the mice are administered a 900 mg/kg acetaminophen dose, which causes the deaths of 100% of the animals. In this case, only administration of the complete yeast combination, CYC, protects more than 50% of the animals treated against death (see Table 2).
The protection against acetaminophen at the dose of 900 mg/kg afforded by the new composition was even more marked when the animals were treated for 7 consecutive days prior to acetaminophen administration with the various components of the combination (see Table 3).

[3] = system: glutathione-depleted rats; test: Glutathione uptake and concentration in blood of glutathione-depleted (DEM) animals; assay type: in vivo, Sprague-Dawley male rats; conditions: rats depleted with diethylmaleate (DEM) 1 cc/kg i.p.; oral treatment half an hour after; measured 4 h after
Method: To this end, the glutathione content in the blood of a group of Sprague-Dawley male rats was reduced by means of the administration of diethylmaleate (DEM)a depletor of glutathione, according to the technique described by Plummer (Plummer J., Chemical depletion of glutathione "in vivo", Methods in Enzymology, 77:50, 1981). DEM was administered intraperitoneally to fasting rats at the dose of 1 cc/kg. Half an hour after injection of diethylmaleate, glutathione alone (50 mg/kg), or yeast containing 10% glutathione (500 mg/kg), or 50 mg/kg of glutathione together with 500 mg of yeast not containing glutathione were administered orally. Another group of rats received glutathione amino acid precursors (glutamic acid 50 mg/kg, glycine 50 mg/kg, cysteine 50 mg/kg, magnesium 10 mg/kg) or the complete combination according to the invention at the same doses as described here above.
After four hours blood samples were taken from the animals thus treated and the plasma glutathione concentration was measured.

[4] = system: hypertriglyceridaemia induced in the rat; test: Protection against experimental hypertriglyceridaemia (fructose) in the rat; assay type: in vivo; conditions: fructose 3 g/kg oral; for Hypertriglyceridaemia (blood triglycerides): five hours after, oral treatment three days before and three hours after
Description: The method used for this test was that described by Carlson (Carlson L. A. V., J. Atheroscl. Res., 8:667, 1968) and modified as described in Atherosclerosis, 16:349, 1972. According to this test oral administration of 3 g/kg of fructose in the rat induces a substantial increase in both liver and serum triglycerides five hours after administration.
The aim of this test was to assess whether the administration of the components of the composition according to the invention, when used alone or in combination, were capable of leading to a reduction in this triglyceride abnormality which is regarded as underlying severe liver dysfunctions as well as atherosclerosis.
To this end, various groups of rats were treated with glutathione (G=50 mg/kg), with propionyl L-carnitine (PC=50 mg/kg), or with yeast containing 10% glutathione (YG=500 mg/kg), or with an amino acid mixture (AA=glutamic acid 50 mg/kg, cysteine 25 mg/kg, glycine 100 mg/kg+magnesium 5 mg/kg), or with a combination of these various components (at the same doses) without yeast (CC) or with yeast (CYC). The treatment was given orally on the three days preceding fructose administration and for three hours after its administration. Five hours after fructose administration all animals were sacrificed and blood samples were used to assay triglycerides according to the method described by Donabedian (Donabedian R. K., Clin. Chem., 20:632, 1974).

[5] = system: glycerol-induced kidney failure; test: Activity against glycerol-induced nephropathy; assay type: in vivo, Male Sprague-Dawley rats; conditions: for Protective effect against glycerol-induced kidney lesions (in words): rat; for Urea: rat plasma 24 hours after glycerol injection (10 cc/kg of 50% w/v), treated daily three days before
Method: The method used in this test was that described by Young (Young J. H. K., Meth. Find. Exp. Clin. Pharmacol., 13:23, 1991). According to this test, a glycerol injection induces kidney failure and nephropathy in the rat. This method was used to assess the protective effects of the combination according to the invention on the kidney. Male Sprague-Dawley rats were used, which, after being deprived of drinking water for 24 hours, were injected with 10 cc/kg of a 50% w/v solution of glycerol and water. After the injection, the animals thus treated were allowed to drink. After 24 hours, blood samples were taken from the animals and, after centrifuging, the plasma creatinine concentration was assayed (according to the method described by Taussky H. H., Clin. Chem. Acta, 1:210, 1956) and urea by means of reaction with diacetylmonoxime (Henry R. Y., Cannon D. C. Eds., Clinical Chemistry, 2 Ed. Harper & Rowe, London 1974). Propionyl L-carnitine (100 mg/kg), glutathione (50 mg/kg) or yeast containing glutathione (500 mg/kg), amino acids (25 mg/kg each), yeast (500 mg/kg) and a combination of these at the same doses were administered daily on the three days preceding the test.

[6] = system: CCl4-intoxicated liver cell cultures; test: Carbon tetrachloride (CCl4) intoxication tests on isolated rat liver cells; assay type: cell-based; conditions: for Toxic effects of carbon tetrachloride (in words): CCl4 10 mmol.L^-1
Description: The cells used in these tests were isolated rat liver cells after perfusion with collagenase according to the method described by Seglen (Seglen F. O., Method Cell. Biol. Chem. 264:4747, 1989). Approximately 4-6×10^8 viable liver cells were collected, calculated by exclusion of non-viable cells by means of trypan blue.
The cells thus isolated were suspended in 25 cm^2 plastic receptacles in the presence of antibiotics and 10% inactivated fetal calf serum. To the cell suspension thus obtained was added CCl4 (10 mmol.L^-1), glutathione (GSH 20 mg.L^-1), propionyl L-carnitine (100 mg.L^-1) or glutathione combined with propionyl L-carnitine. After a 4-h incubation the percentage of dead cells was estimated by release of lactate dehydrogenase, as described by Casini et al. (Casini et al., J. Biol. Chem., 257:6721, 1982).
The cytological examination of the liver cells was done under both the light and electron microscope after fixation in 3% formalin and paraffin for light microscopy and 3% glutaraldehyde and 1% osmium tetroxide for electron microscopy.

[7] = system: glutathione (GSH) concentration; test: Effects on glutathione (GSH) concentration in young and elderly rats; assay type: in vivo
Method: Since the metabolic and enzymatic activity of glutathione is known to be reduced in elderly rats and this reduction is regarded as one of the causes of ageing, the effect of the administration of the new composition or its individual components on glutathione concentrations in the plasma and liver of young and elderly rats was evaluated.
For this test two different groups of rats were used: young rats (2-3 months) and elderly rats (8-10 months). The glutathione (GSH) concentration was calculated in both groups according to the technique described by Moron (Moron M. S., Biochem. Biophys. Acta, 582:67, 1979) both before the start of the test and after 15 days' daily administration of propionyl L-carnitine (100 mg/kg), glutathione (50 mg/kg), propionyl L-carnitine with glutathione or with yeast containing 10% glutathione (500 mg/kg), amino acids (500 mg/kg) or the combination according to the invention.

[8] = acetaminophen 900 mg/kg, dead/total, Table 2
[9] = acetaminophen 900 mg/kg, dead/total, table at the place of Table 3, printed as a repeat of TABLE 2
[10] = oral acetaminophen 600 mg/kg, substance given at the same time, mortality 24 hours after treatment (dead/total), Table 1
[11] = CCl4-intoxicated liver cell cultures, table at the place of Table 5, printed as a repeat of TABLE 4
[12] = isolated rat liver cells, CCl4 10 mmol.L^-1, 4-h incubation, lactate dehydrogenase release, GSH 20 mg.L^-1, propionyl L-carnitine 100 mg.L^-1, Table 4
[13] = elderly rats (8-10 months), liver, after 15 days' daily administration, Table 9
[14] = elderly rats (8-10 months), liver, before the start of the test, Table 9
[15] = elderly rats, 15 days, table at the place of Table 10, printed as a repeat of TABLE 9
[16] = elderly rats, time 0, table at the place of Table 10, printed as a repeat of TABLE 9
[17] = young rats (2-3 months), liver, after 15 days' daily administration, Table 9
[18] = young rats (2-3 months), liver, before the start of the test, Table 9
[19] = young rats, 15 days, table at the place of Table 10, printed as a repeat of TABLE 9
[20] = young rats, time 0, table at the place of Table 10, printed as a repeat of TABLE 9

Compound | Triglycerides (liver) [1] [mg/g] | Protection against the mortality induced by acetaminophen (in words) [2] | Mortality [2, 8] | Mortality [2, 9] | Mortality [2, 10] | Glutathione (GSH) concentration in plasma [3] [mg/dL] | Efficacy on serum triglyceride levels induced by fructose (in words) [4] | Hypertriglyceridaemia (blood triglycerides) [4] [mg/100 ml] | Protective effect against glycerol-induced kidney lesions (in words) [5] | Urea [5] [mg/100 ml] | % dead cells [6, 11] [%] | Toxic effects of carbon tetrachloride (in words) ([6]; isolated rat liver cells) | % dead cells [6, 12] [%] | Glutathione concentration in liver, elderly rats, time 15 days [7, 13] [GSH ng/mg protein] | Glutathione concentration in liver, elderly rats, time 0 [7, 14] [GSH ng/mg protein] | Glutathione concentration in liver, elderly rats, time 15 days [7, 15] [GSH ng/mg protein] | Glutathione concentration in liver, elderly rats, time 0 [7, 16] [GSH ng/mg protein] | Glutathione concentration in liver, young rats, time 15 days [7, 17] [GSH ng/mg protein] | Glutathione concentration in liver, young rats, time 0 [7, 18] [GSH ng/mg protein] | Glutathione concentration in liver, young rats, time 15 days [7, 19] [GSH ng/mg protein] | further results
CCC(=O)O[C@H](CC(=O)[O-])C[N+](C)(C)C [PC, Propionyl L-carnitine] | 20.2 ± 1.9 | no such protection | 10/10 | 10/10 | 6/10 | 0.70 ± 0.54 | small efficacy | 185 ± 7.1 | fairly good protective effect | 88.5 ± 11.5 | 70 ± 7 | capable of reducing the toxic effects of carbon tetrachloride | 70 ± 7 | 9.3 ± 0.46 | 7.9 ± 0.51 | 9.3 ± 0.46 | 7.9 ± 0.51 | 12.90 ± 0.71 | 11.25 ± 0.41 | 12.90 ± 0.71 | Glutathione concentration in liver, young rats, time 0 [7, 20]: 11.25 ± 0.41 GSH ng/mg protein
N[C@@H](CCC(=O)N[C@@H](CS)C(=O)NCC(=O)O)C(=O)O [G, N-(N-L-L-γ-glutamyl-cysteinyl) glycine] | 18.7 ± 2.1 | partial protection | 7/10 | 7/10 | 4/10 | 0.95 ± 0.88 | small efficacy | 180 ± 5.9 | fairly good protective effect | 79.9 ± 9.9 | 55 ± 5 | capable of reducing the toxic effects of carbon tetrachloride | 55 ± 5 | 9.90 ± 0.76 | 8.82 ± 0.69 | 9.90 ± 0.76 | 8.82 ± 0.69 | 12.85 ± 0.66 | 12.1 ± 0.36 | 12.85 ± 0.66 | Glutathione concentration in liver, young rats, time 0 [7, 20]: 12.1 ± 0.36 GSH ng/mg protein
